Experimental data taken from patent US8889411B2, “Modulation of stem and progenitor cell differentiation, assays, and uses thereof” (Anthrogenesis Corporation, priority 2002, dated 2014).

Legend:
[1] = tested on: Cord blood CD34+ hematopoietic progenitor cells; assay: Colony forming unit (CFU) generation from cord blood CD34+ cells; assay type: cell-based, human; settings: IL-3, G-CSF, kit-ligand, vs DMSO
Method: FIG. 1. Bar graph indicating results of culturing cord blood CD34+ cells in the presence of Thalidomide (THD), ACTIMID™, and REVIMID™ at concentrations of 1 μg/ml and 10 μg/ml. An equal volume of DMSO was used as a negative control. Hematopoietic colonies of burst forming units-erythroid (BFU-E), colony forming units-erythroid (CFU-E), colony forming units-granulocyte macrophage (CFU-GM) and total numbers of colonies (CFU-Total) were scored under the light microscope at day 14 of culture. Y-axis: numbers of colonies. See Section 6.1 for details.
Cord blood CD34+ hematopoietic progenitor cells were plated in 96 well cultivation dishes at a density of 1000 cells per well in IMDM supplemented with 20% fetal calf serum and cytokines (IL-3, G-CSF and kit-ligand (R&D Systems, Inc.) The cells were exposed to Thalidomide (Thal), ACTIMID™ and REVIMID™, or DMSO (a control compound), and allowed to culture for 6 days. […] After culturing, cells were stained and sorted with a fluorescence activated. cell sorter (FACS). 400 μL of stained cells were harvested and diluted to 1.0 ml with 1% fetal calf serum in phosphate buffered saline (PBS). Cells were counted to determine the effect of modulation of stem cell differentiation.

[2] = tested on: Human Cord Blood MNC Cells; assay: FACS analysis of cryopreserved and thawed cord blood MNCs after 1 week of culture with cytokines; assay type: cell-based; settings: 5 μg in 1.7 μl DMSO, average +/− SD of three wells
Method: Cord blood MNCs that had been cryopreserved and thawed using standard methods were isolated by standard Ficoll separation method and cultured in 24 well-plate at 0.5×10^6 cells/ml in 20% FCS-IMDM with cytokines (1L6, KL and G-CSF 10 ng/ml each) in triplicates. The experimental groups were None (cytokines only), DMSO (1.7 μl), ACTIMID™ (5.0 μg in 1.7 μl DMSO), REVIMID™ (5 μg in 1.7 μl DMSO). The cultured cells were harvested and analyzed by FACS staining after 1 week of culture. The data are expressed as an average +/− SD from three independent wells.

[3] = tested on: Human Cord Blood CD34+ Cells; assay: FACS analysis of proliferation and differentiation of cord blood CD34+ cells cultured with IL3, G-CSF and Kit-ligand; assay type: cell-based; settings: for CD11b+ Cell Population / CD34+CD38+ Cell Population / CD34+CD38− Cell Population: 7 days
Method: CB CD34+ cells were initiated at 4×10^4 cells/ml in a 24-well plate in 20% FCS IMDM (fetal calf serum/Iscove's Modified Dulbecco's Medium) supplemented with cytokines (1 L3, GCSF and Kit-ligand) (R&D Systems, Inc.). Thalidomide (Thal), ACTIMID™ or REVIMID™ were included in the culture at three different concentrations: 5 μg/ml, 1 μg/ml and 0.3 μg/ml. The same volumes of DMSO were used as controls. A negative control without, any compound was also used (indicated by “none” in FIGS. 3-7). Cells were cultured at 37° C. and 5% CO2 in a humidified incubator for 7 days. Cells were then harvested from each well.
The total cell number from each well was determined by counting in a CELL-DYN® 1700 (Abbott Diagnostics) and the expression of CXCR4, CD45, CD34, CD38, CD 1 lb and Gly-A expression was analyzed by FACS (fluorescence-activated cell sorting) staining (FIGS. 3-7).
CB cells from two different donors (CB2276 and CB2417) were cultured, assayed and analyzed separately (Table 1).

[4] = tested on: human cord blood CD45+ cells; assay: Flow cytograms of cord blood CD45+ cells cultured 14 days with IL3, IL6, G-CSF, Epo and KL; assay type: cell-based; settings: 5 μg/ml, FIG. 10
Method: (§1) FIGS. 9(A-F). Flow cytograms. […] Cord blood CD45+ cells were cultured for 14 days with cytokines IL3, IL6, G-CSF, Epo and KL. Percentages indicated on each cytogram indicate the percentage of the cell population expressing a particular combination of markers. A. Control, immunoglobulin (Ig). B. Control, no compound added. C. DMSO (5 μg/ml). D. Thal (5 μg/ml). E. ACTIMID™ (5 μg/ml). F. REVIMID™ (5 μg/ml). X-axis: relative intensity of CD38 (FL1-H) staining. Y-axis: relative intensity of CD19 (FL2-H) staining. See Section 6.3 for details.
as §1, with “10(A-F).” for “9(A-F).”, “CXCR5” for “CD38”, “CD34” for “CD19”

[5] = tested on: Purified human cord blood CD34+ cells; assay: Monocyte production: CD34/CD14 staining of cord blood CD34+ cells cultured 14 days with cytokines; assay type: cell-based
Method: Purified human cord blood CD34+ cells (greater than 90% CD34+) were cultured in 20% FCS IMDM medium supplemented with cytokines (IL3, IL6, G-CSF, KL and Epo) at 4×10^4 cells/ml for 14 days at 37° C. in a humidified 5% CO2 incubator. The experimental groups consisted of a group in which (i) no DMSO or chemical compounds were added (“None”), (ii) DMSO only, (iii) Thalidomide dissolved in DMSO, (iv) ACTIMID™ dissolved in DMSO, and (v) REVIMID™ dissolved in DMSO. Aliquots of cells were harvested and stained with CD34-PE conjugated monoclonal antibody and CD14-FITC conjugated monoclonal antibody.

SMILES: Nc1cccc2c1CN(C1CCC(=O)NC1=O)C2=O (stereo not drawn) [REVIMID™, 3-(4-amino-1-oxo-1,3-dihydro-isoindol-2-yl)-piperidine-2,6-dione]
- generation of erythropoietic colonies (BFU-E and CFU-E) [1]: suppress
- generation of leukocyte and platelet forming colonies (CFU-GM) [1]: augmenting
- total colony forming unit (CFU-Total) production [1]: enhancing
- CD34(%) [2]: 2.34 +/− 0.22%
- CD34+CD38−(%) [2]: 0.80 +/− 0.29%
- CXCR4+CD45+(%) [2]: 3.6 +/− 0.9%
- CXCR4+CD45−(%) [2]: 3.28 +/− 0.89%
- Total CD34+ cells [2]: 7166 +/− 802
- Total cells (1 × 10^6) [2]: 0.30 +/− 0 1 × 10^6
- expression of CXCR4 ([3]; FACS analysis of surface proteins): inhibitory effect
- yield of cells ([3]; IL-3, KL and G-CSF, compared with the DMSO control): slightly higher number of cells
- effect on the proliferation of CD34+ cells ([3]; IL-3, KL and G-CSF, compared with the negative control (none)): do not have a significant effect
- CD11b+ Cell Population ([3]; donor CB2276, 0.3 μg/ml): 13.3%
- CD34+CD38+ Cell Population ([3]; donor CB2276, 0.3 μg/ml): 1.7
- CD34+CD38− Cell Population ([3]; donor CB2276, 0.3 μg/ml): 9.8
- CD11b+ Cell Population ([3]; donor CB2276, 1 μg/ml): 8.6%
- CD34+CD38+ Cell Population ([3]; donor CB2276, 1 μg/ml): 1
- CD34+CD38− Cell Population ([3]; donor CB2276, 1 μg/ml): 10.3
- CD11b+ Cell Population ([3]; donor CB2276, 5 μg/ml): 4.8%
- CD34+CD38+ Cell Population ([3]; donor CB2276, 5 μg/ml): 0.3
- CD34+CD38− Cell Population ([3]; donor CB2276, 5 μg/ml): 4.0
- CD11b+ Cell Population ([3]; donor CB2417, 0.3 μg/ml): 11.2%
- CD34+CD38+ Cell Population ([3]; donor CB2417, 0.3 μg/ml): 0.9
- CD34+CD38− Cell Population ([3]; donor CB2417, 0.3 μg/ml): 3.4
- CD11b+ Cell Population ([3]; donor CB2417, 1 μg/ml): 8.2%
- CD34+CD38+ Cell Population ([3]; donor CB2417, 1 μg/ml): 0.6
- CD34+CD38− Cell Population ([3]; donor CB2417, 1 μg/ml): 3.8
- CD11b+ Cell Population ([3]; donor CB2417, 5 μg/ml): 5.5%
- CD34+CD38+ Cell Population ([3]; donor CB2417, 5 μg/ml): 0.3
- CD34+CD38− Cell Population ([3]; donor CB2417, 5 μg/ml): 4.2
- CD38 status of the majority of CD34+ and CD34− cells ([3]; treated cell populations): CD38−
- level of CD11b expression by mean immunofluorescence (MIF) ([3]; treated cells): decreased
- repression of CXCR5 produced by exposure to DMSO [4]: overcomes the repression
- percentage of monocyte lineage cells ([5]; 5 μg/ml, compared to control, FIG. 13): increase
- percentage of CD34+ cells of the total cells ([5]; 14 days, IL3, IL6, G-CSF, KL and Epo, compound dissolved in DMSO): 7.1%
- production of monocytes (CD14+ cells) ([5]; 14 days, relative to DMSO-treated group): overcome
